We go through 61 molecules from PubChem BioAssay AID2305 (GlaxoSmithKline (GSK), 2010).

Molecules are shown by their SMILES.

This experiment relates to P. falciparum 3D7 growth, pLDH absorbance. Briefly: P. falciparum 3D7 growth inhibition, dose response, strain 3D7 (AID 2305).

Consider `CN(C)CCN(C)Cc1ccc(-c2ccc(NS(=O)(=O)c3cccc4cccnc34)cc2)cc1`, for which the IC50 was determined as 0.86 µM.
Take `COc1ccc2nccc(NN=Cc3ccccc3)c2c1`: the IC50 is 0.11 µM.
`NC1=NC2(CCCC2)N(c2ccc(Cl)cc2)C(N)=N1`: the half-maximal inhibitory concentration (IC50) came out at 0.41 µM.
To `COc1ccc(-c2cccc(NC(=O)c3cccc(Cl)c3)c2)cc1CNC(C)C` belongs 0.72 µM; to `COc1ccc2ncc(F)c([C@H](O)CN3CCC(NCc4ccc5c(c4)NC(=O)CO5)CC3)c2c1`, 0.17 µM.
For `CC(C)c1ccc(S(=O)(=O)Nc2cccc(CCN3CCC(N4CCCCC4)CC3)c2)cc1` the value was 1.12 µM; for `O=C(Nc1ccc(-c2nc3ccccc3[nH]2)cc1)c1ccc(N2CCOCC2)c([N+](=O)[O-])c1`, 0.79 µM; for `N#CCCn1nc(-c2ccc(Cl)cc2)c2c(c1=O)CCCC2`, 0.89 µM.
In turn, `CCOc1cc(CNCCCCCCNCc2cc(OCC)c(OCC)c3ccccc23)c2ccccc2c1OCC` had a half-inhibitory concentration (IC50) of 0.28 µM.
For `Cc1cc2nc(-c3ccc(OCC(=O)NCc4cccc(C(F)(F)F)c4)cc3)[nH]c2cc1C` the value was 0.99 µM; for `O=C(/C=C/c1ccc(Cl)c(Cl)c1)NC1CCC(N2CCC(c3c[nH]c4ccc(O)cc34)CC2)CC1` (stereo unspecified), 0.92 µM; for `Clc1ccc(CNc2ccnc(NCCc3coc4ccccc34)n2)c(Cl)c1`, 1.17 µM.
To `O=C(Cc1ccc(-c2ccccc2)cc1)N[C@H]1CCN(Cc2ccc(OCCCN3CCCCC3)cc2)C1` belongs 0.77 µM; to `CC(C)c1ccc(NC(=O)Nc2ccc(Cn3ncc(N4CCCNCC4)c(Cl)c3=O)cc2)cc1`, 1.05 µM.
To `CC(=O)NCCNCc1cccc(C(=O)NCc2cccc(C(F)(F)F)c2)c1` belongs 1.08 µM; to `Cc1ccc(Cn2ncc(N3CCCNCC3)c(Cl)c2=O)cc1NC(=O)Nc1ccc(-c2ccccc2)cc1`, 0.63 µM.
`O=C(Nc1ccc(C(F)(F)F)cc1)N[C@H]1CCN(CCCCCNC(=O)[C@@H]2C[C@H]2c2ccc(Cl)c(Cl)c2)C1`: the IC50 was determined as 1.1 µM.
To `COc1cc2c(cc1S(=O)(=O)c1ccc(OCc3ccc(Cl)cc3)cc1)CCN(Cc1ccc(NC(C)=O)s1)CC2` belongs 0.92 µM.
For `Cn1nccc1C(=O)NCCNCc1ccc(-c2ccc(-c3nc4ccc(C(F)(F)F)cc4[nH]3)s2)cc1` the value was 0.19 µM.
For `Cc1cnc(CCNC(=O)c2cc(-c3ccc(Cl)cc3)cs2)[nH]1` the value was 0.24 µM.
For the molecule `Cc1c(Oc2ccc(-n3ccnc3)cc2)ncnc1N1CCC2(CC1)CNCc1ccccc12`, the IC50 was found to be 0.89 µM.
To `Cc1c(F)cc(C(=O)NC2CC2)cc1-c1ccc2c(cnn2S(=O)(=O)c2cccs2)c1` belongs 0.86 µM; to `OC(CNCCc1ccccc1)Cn1c2ccc(Cl)cc2c2cc(Cl)ccc21` (stereo unspecified), 0.73 µM.
To `Cc1cccc2[nH]c(-c3ccc(-c4ccc(CN5CCCCC5)cc4)s3)nc12` belongs 0.52 µM; to `CC(Cc1ccc(OCCN2CCN(c3ccccc3)CC2)cc1)NCC(O)c1cccc(Cl)c1F` (stereo unspecified), 0.87 µM.
As to `O=C(/C=C/c1ccc(Cl)c(Cl)c1)NCC1CCC(N2CCC(c3c[nH]c4ccccc34)CC2)CC1` (stereo unspecified), the IC50 was found to be 0.17 µM.
Regarding `COc1ccc(-c2nnc(Sc3ccc(C#N)c([N+](=O)[O-])c3)n2CCC(C)C)cc1`, the IC50 was 1.11 µM.
To `O=C(Nc1cccc(Cl)c1)OC1CCCN2CCCCC12` (stereo unspecified) belongs 1.02 µM; to `CCCc1cc(Cc2cnc(N)nc2N)ccc1OCCCCCC(=O)O`, 0.58 µM.
To `O=C(c1cc(C(=O)Nc2ccccc2)c(=O)n(-c2ccccc2)c1)c1cc(Cl)ccc1O` belongs 0.39 µM.
For `O=C(/C=C/c1ccc(Cl)cc1Cl)NCCCCCN1CCC(c2c[nH]c3ccccc23)CC1` the value was 0.94 µM.
`CN(C)CCOc1cc(NC(=O)Nc2ccc(-c3ccncc3)c(C(F)(F)F)c2)ccc1Cl` showed an IC50 of 0.99 µM.
For `CC(C)(CNCCOc1ccc(Cl)cc1)c1nc(-c2ccc(Cl)c(O)c2)c(-c2ccnc(N)n2)[nH]1` the value was 0.83 µM; for `CC(=O)Nc1cccc(C(=O)Nc2cccc(-c3cccc(-c4nc5ccc(F)cc5[nH]4)c3)c2)c1`, 0.55 µM.
`COc1cc(C)cc(CN2CCC(Cc3ccccc3)CC2)c1O`: the IC50 turned out to be 1.02 µM.
In turn, `CN(C(=O)c1snnc1-c1ccccc1)C1CCN(CCCCCNC(=O)/C=C/c2ccc(Cl)c(Cl)c2)CC1` came in with an IC50 of 0.19 µM.
Turning to `Oc1ccc(Nc2nc(NCC3CCCO3)c3ccccc3n2)cc1` (stereo unspecified), the IC50 was 0.81 µM.
To `O=C(N[C@H]1CCN(Cc2ccc(OCCN3CCCC3)c(Cl)c2)C1)c1ccc(Cl)c(Cl)c1` belongs 0.92 µM; to `Cc1cc(CNC(=O)c2ccc(-c3ccc(-c4nc5ccc(C(F)(F)F)cc5[nH]4)s3)cc2)on1`, 0.73 µM.
For `O=C(/C=C/c1ccc(Cl)c(Cl)c1)NCCCCCN1CCC(NC(=O)NCCc2ccccc2)CC1` the value was 0.72 µM; for `CN(C)c1ccc2c(c1)Sc1cc(N(C)C)ccc1N2C(=O)CCCC(=O)O`, 0.8 µM; for `Cc1cccc(/C=C/C(=O)NC2CCC(N3CCC(c4ccccc4C)CC3)CC2)c1` (stereo unspecified), 1.11 µM.
As to `COc1ccc(NC(=O)[C@H](CC(C)C)Nc2ccnc(Nc3ccccc3)n2)cc1`, the IC50 came to 1.57 µM.
To `Cc1cc(C)c(S(=O)(=O)N2CCCCC(c3cccc(C(F)(F)F)c3)=N2)c(C)c1` belongs 0.46 µM; to `COc1ccc(C2CC(c3cccs3)=NN2C(=O)c2ccccc2)cc1OC` (stereo unspecified), 0.66 µM.
For `Cc1ccc(Nc2nc(C)cc(N3CCN(c4ccccc4)CC3)n2)cc1` the value was 1.53 µM; for `Cc1ccc(Nc2nc(C)cc(NCc3ccc(-n4ccnc4)cc3)n2)cc1`, 1.01 µM.
To `CC(=O)Nc1ncc(C(=O)Nc2cccc(-c3ccc(-c4nc5c(C)cccc5[nH]4)cc3)c2)s1` belongs 0.64 µM; to `CCC(=O)c1ccc(-c2ccc(=O)n(CC(=O)N(CCN(CC)CC)Cc3ccc(-c4ccc(C(F)(F)F)cc4)cc3)n2)cc1`, 0.72 µM; to `COc1ccc([C@@]23Oc4cc(OC)cc(OC)c4[C@]2(O)C2(CC3c3ccccc3)SCCCS2)cc1` (stereo partly specified), 0.12 µM.
`Cc1ccc(Cn2ncc(N3C[C@@H](C)N[C@@H](C)C3)c(Cl)c2=O)cc1NC(=O)Nc1ccc(-c2ccccc2)cc1` yielded an IC50 of 0.74 µM.
For `O=C(NCc1cccc(Br)c1)c1ccc(CNC2CCN(Cc3ccccc3)CC2)cc1` the value was 0.87 µM.
For `CN1CCC(N(Cc2ccc(-c3ccc(Cl)cc3)cc2)C(=O)Cn2c(CCc3cccc(F)c3F)cc(=O)c3ccccc32)CC1` the value was 0.86 µM; for `CNCCNCc1cccc(-c2cccc(-c3nc4ccc(F)cc4[nH]3)c2)c1`, 0.67 µM.
`CN(C)CCN(C)Cc1ccc(-c2ccc3c(Nc4ccc(F)cc4Cl)ccnc3c2)o1` returned an IC50 of 0.12 µM.
For `COc1cc2nc(NCC3CCN(c4nc(N)c5cc(OC)c(OC)cc5n4)CC3)nc(N)c2cc1OC` the value was 0.78 µM; for `Cn1nc(-c2cccc(CNCc3ccccc3)c2)c2cnc(NC3CCCC3)nc21`, 1.26 µM; for `CC(C)C[C@H](Nc1ccc(C#N)c2ccccc12)C(=O)N[C@@H]1CCCc2ccccc21`, 0.76 µM.
With `CC(C)(C)OC(=O)NCC(=O)N(Cc1ccccc1)Cc1ccccc1`, the IC50 amounted to 0.12 µM.
Turning to `COCCN1CCC(N(Cc2ccc(-c3ccc(C(F)(F)F)cc3)cc2)C(=O)Cn2c(CCc3cccc(F)c3F)cc(=O)c3c2CCC3)CC1`, the IC50 came out at 1.32 µM.
In the case of `CC(C)CCN1CCC(Oc2ccc(NC(=O)c3ccsc3)cc2Cl)CC1`, the half-maximal inhibitory concentration (IC50) came out at 1.04 µM.
